According to article PMC7551059, “Bioactive Bianthraquinones and Meroterpenoids from a Marine-Derived Stemphylium sp. Fungus” (Marine Drugs, 2020):
Like-named read-outs stand apart in the source and are kept apart here.

System: lipopolysaccharide (LPS)-induced nitric oxide (NO) production in RAW 264.7 mouse macrophages
Assay: LPS-induced NO (nitrite) production in RAW 264.7 cells, Griess reagent
Format: cell-based
Conditions: for IC50: Mus musculus
Experimental: A RAW 264.7 murine macrophage cell line was purchased from American Type Cell Culture (Rockville, MD, USA). Cells were cultured in DMEM with 10% fetal bovine serum and antibiotic−antimycotics (i.e., penicillin G sodium, 100 units/mL; streptomycin, 100 μg/mL; amphotericin B, 250 ng/mL) at 37 °C in a humidified incubator with 5% carbon dioxide. All reagents used for cell culture were purchased from Gibco® Invitrogen Corp. (Grand Island, NY, USA).
The concentration of nitrite in the cultured media was used as a measure of NO production. The assay was performed as previously described. RAW 264.7 cells were plated at a density of 5 × 10^5 per well in a 24-well culture plate and incubated in a 37 °C humidified incubator with 5% CO2 in air for 18 h. The incubated cells were pretreated with phenol-red-free medium containing various concentrations of tested compounds for 30 min, followed by 1 μg/mL of LPS treatment for 18 h more. Aliquots of the supernatant from each well (100 μL) were transferred to a 96-well plate, and nitrite concentration was measured using Griess reagent. After the Griess reaction, MTT solution (final concentration of 500 μg/mL) was added to each well and further incubated for 4 h at 37 °C. Each medium was discarded, and dimethyl sulfoxide was added to each well to dissolve generated formazan. The absorbance was measured at 570 nm, and percent survival was determined by comparison with LPS treated control group. All reagents used in the nitrite production measurement were purchased from Sigma-Aldrich (St. Louis, MO, USA).

[1] = RAW264.7, RAW 264.7 cells, compounds 30 min before LPS 1 μg/mL, 18 h, read-out: IC50, suppression of LPS-induced NO production

| SMILES | IC50 [1] | further results |
| --- | --- | --- |
| COc1c(-c2cc(O)c3c(c2OC)C(=O)c2cc(C)c(O)cc2C3=O)cc(O)c2c1C(=O)C1=C(C2=O)[C@H](O)[C@@H](O)[C@@](C)(O)[C@H]1O (relative stereo) [Compound 2, alterporriol Z2] | 16.1 ± 1.1 µM |  |
| COc1c(-c2cc(O)c3c(c2OC)C(=O)c2cc(C)c(O)cc2C3=O)cc(O)c2c1C(=O)C1=C(C2=O)C(O)C(O)C(C)(O)C1O (stereo not drawn) [Compound 1, alterporriol Z1] | 11.6 ± 0.7 µM |  |
| COc1cc(O)c2c(c1)C(=O)c1cc(C)c(O)c(-c3c(OC)cc(O)c4c3C(=O)C3=C(C4=O)C(OC)C(O)C(C)(O)C3O)c1C2=O (stereo not drawn) [Compound 3, alterporriol Z3] |  | IC50, suppression of LPS-induced NO production (RAW 264.7 cells, compounds 30 min before LPS 1 μg/mL, 18 h): inactive |
| COc1cc(O)c2c(c1-c1c(OC)cc(O)c3c1C(=O)c1cc(C)c(O)cc1C3=O)C(=O)C1=C(C[C@@H](O)[C@@](C)(O)[C@@H]1O)C2=O [Compound 4, alterporriol F] | 9.6 ± 1.6 µM |  |
| COc1cc2c(c(O)c1-c1c(OC)cc(O)c3c1C(=O)C1=C(C3=O)[C@H](O)[C@@H](O)[C@@](C)(O)[C@@H]1O)C(=O)c1cc(O)c(C)cc1C2=O [Compound 5, alterporriol G] |  | IC50 (RAW264.7, read-out: IC50, suppression of LPS-induced NO production): 8.4 ± 0.4 µM |
| COc1cc(O)c2c(c1)C(=O)c1cc(C)c(O)c(-c3c(OC)cc(O)c4c3C(=O)C3=C(C4=O)[C@H](O)[C@@H](O)[C@@](C)(O)[C@H]3O)c1C2=O [Compound 6, alterporriol N] | 10.7 ± 0.6 µM |  |
